Measured values taken from patent publication US6737383B1, “Herbicidal oxadiazolidines” (priority 1999, dated 2004).

How the values were obtained:
surinam grass = assay: Test B pre/postemergence surinam grass; format: in vivo, Brachiaria decumbens
Outline: (§1)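 Response is a visual 0-to-10 score relative to untreated plants, where 0 means no effect and 10 means complete control, taken twelve to sixteen days after application. Treatments went onto soil at planting and onto foliage of 1- to 4-leaf plants, using a surfactant-containing non-phytotoxic solvent.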

bamyardgrass = assay: Test B flood test barnyardgrass; format: in vivo, Echinochloa crus-galli; settings: for Plant response rating, Barnyardgrass (0 to 10 scale, 0 is no effect, 10 is complete control) / Barnyardgrass plant response rating (0 to 10 scale, 0 is no effect, 10 is complete control): flood test species, visual evaluation after twelve to sixteen days; for Barnyardgrass plant response rating (0 to 10 scale, 0 is no effect, 10 is complete control): under heading Pre-emergence
Outline: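 Plants were grown to the 2-leaf stage before treatment with test chemical, then held in a greenhouse for twelve to sixteen days. Injury was visually rated against untreated controls on a 0–10 scale, where 0 is no effect and 10 is complete control.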

bedstraw = assay: Test B pre/postemergence bedstraw; format: in vivo, Galium aparine
Outline: as §1

wild oat = assay: Test B pre/postemergence wild oat; format: in vivo, Avena fatua
Outline: as §1

[1] = Postemergence, Rate 62 g/ha, scale 0 to 10, 0 is no effect, 10 is complete control
[2] = Postemergence, Rate 125 g/ha, scale of 0 to 10 where 0 is no effect and 10 is complete control
[3] = Postemergence, Rate 250 g/ha, scale of 0 to 10, 0 is no effect, 10 is complete control
[4] = Preemergence, Rate 62 g/ha, scale 0 to 10 (0 no effect, 10 complete control)
[5] = Preemergence, Rate 125 g/ha, scale of 0 to 10 where 0 is no effect and 10 is complete control
[6] = Preemergence, Rate 250 g/ha, scale 0 to 10 (0 no effect, 10 complete control)
[7] = Preemergence, Rate 500 g/ha, scale of 0 to 10 where 0 is no effect and 10 is complete control
[8] = Rate 250 g/ha, Pre-emergence (flood test species), scale 0 to 10, 0 is no effect, 10 is complete control
[9] = Rate 500 g/ha, Pre-emergence section of Table B, 0 to 10 scale (0 no effect, 10 complete control)
[10] = Preemergence, Rate 62 g/ha, scale of 0 to 10 where 0 is no effect and 10 is complete control
[11] = Rate 500 g/ha, Postemergence, scale 0 to 10, 0 is no effect, 10 is complete control
[12] = Rate 250 g/ha, Postemergence, scale 0 to 10, 0 is no effect, 10 is complete control
[13] = Pre-emergence, Rate 62 g/ha, scale 0 to 10, 0 is no effect, 10 is complete control
[14] = Rate 125 g/ha, Pre-emergence section (flood test species), scale 0 to 10, 0 no effect, 10 complete control
[15] = Preemergence, Rate 250 g/ha, scale 0 (no effect) to 10 (complete control)
[16] = Rate 62 g/ha, Preemergence, scale 0 to 10
[17] = Rate 500 g/ha, Preemergence, scale 0 to 10 (0 no effect, 10 complete control)

| SMILES | Plant response rating, B. signalgrass (surinam grass; [1]) | Plant response rating, B. signalgrass (surinam grass; [2]) | B. signalgrass plant response rating (surinam grass; [3]) | B. signalgrass plant response rating (surinam grass; [5]) | Plant response rating, B. signalgrass (surinam grass; [6]) | Plant response rating, B. signalgrass (surinam grass; [7]) | Plant response rating, Barnyardgrass (0 to 10 scale, 0 is no effect, 10 is complete control) (bamyardgrass; Rate 62 g/ha, Pre-emergence) | Barnyardgrass plant response rating (0 to 10 scale, 0 is no effect, 10 is complete control) (bamyardgrass; Rate 125 g/ha) | Barnyardgrass plant response rating (bamyardgrass; [8]) | Barnyardgrass plant response rating (bamyardgrass; [9]) | Plant response rating, Wild oats (wild oat; [1]) | Wild oats plant response rating (wild oat; [5]) | Plant response rating, Wild oats (wild oat; [6]) | Plant response rating, Wild oats (wild oat; [7]) | B. signalgrass plant response rating (surinam grass; [10]) | B. signalgrass plant response rating (surinam grass; [11]) | Bedstraw plant response rating (bedstraw; [2]) | Wild oats plant response rating (wild oat; [2]) | Wild oats plant response rating (wild oat; [11]) | B. signalgrass plant response rating (surinam grass; [2]) | also measured |
| --- | --- | --- | --- | --- | --- | --- | --- | --- | --- | --- | --- | --- | --- | --- | --- | --- | --- | --- | --- | --- | --- |
| COCCn1c(=O)on(C(=O)N(c2ccccc2)C(C)C)c1=O [Compound 631] | 1 | 3 | 6 | 7 | 10 | 10 | 0 | 1 | 4 | 4 | 0 | 2 | 8 | 9 |  |  |  |  |  |  | Plant response rating, B. signalgrass (surinam grass; Postemergence, Rate 500 g/ha, scale of 0 to 10 where 0 is no effect and 10 is complete control): 8; B. signalgrass plant response rating (surinam grass; [4]): 6; Bedstraw plant response rating (bedstraw; [4]): 0; Bedstraw plant response rating (bedstraw; [5]): 0; Plant response rating, Bedstraw (bedstraw; [6]): 0; Plant response rating, Wild oats (wild oat; [2]): 0; Wild oats plant response rating (wild oat; [3]): 1; Wild oats plant response rating (wild oat; [4]): 0 |
| CC(C)N(C(=O)n1oc(=O)n(CCF)c1=O)c1ccc(Cl)cc1 [Compound 668] | 1 | 2 | 4 | 8 | 8 | 9 | 0 | 0 | 0 | 0 | 0 | 7 | 8 | 9 | 5 | 5 | 0 | 0 | 0 |  | Wild oats plant response rating (wild oat; [10]): 2 |
| CC(C)N(C(=O)n1oc(=O)n(CC2=NOCCO2)c1=O)c1ccc(Cl)cc1 [Compound 740] | 0 |  |  |  |  |  |  |  | 0 | 0 | 0 |  |  |  |  | 2 | 0 | 0 | 0 | 0 | B. signalgrass plant response rating (surinam grass; [12]): 0; Barnyardgrass plant response rating (bamyardgrass; [13]): 0; Barnyardgrass plant response rating (bamyardgrass; [14]): 0; Plant response rating, Bedstraw (bedstraw; [1]): 0; Plant response rating, Bedstraw (bedstraw; [5]): 0; Bedstraw plant response rating (bedstraw; [15]): 0; Bedstraw plant response rating (bedstraw; [16]): 0; Bedstraw plant response rating (bedstraw; [11]): 0; Bedstraw plant response rating (bedstraw; [17]): 0; Plant response rating, Wild oats (wild oat; [5]): 0; Wild oats plant response rating (wild oat; [15]): 2; Wild oats plant response rating (wild oat; [16]): 0; Wild oats plant response rating (wild oat; [12]): 0; Wild oats plant response rating (wild oat; [17]): 6 |
| CC(C)N(C(=O)n1oc(=O)n(CCN(C)C(=O)c2ccccc2)c1=O)c1ccc(F)cc1 [Compound 741] | 0 |  |  |  |  |  |  |  | 0 | 0 | 0 |  |  |  | 0 |  | 0 | 0 |  | 0 | Plant response rating, B. signalgrass (surinam grass; [5]): 0; B. signalgrass plant response rating (surinam grass; [15]): 2; B. signalgrass plant response rating (surinam grass; [12]): 4; B. signalgrass plant response rating (surinam grass; [17]): 2; Barnyardgrass plant response rating (bamyardgrass; [13]): 0; Barnyardgrass plant response rating (bamyardgrass; [14]): 0; Plant response rating, Bedstraw (bedstraw; [1]): 0; Plant response rating, Bedstraw (bedstraw; [5]): 0; Bedstraw plant response rating (bedstraw; [15]): 0; Bedstraw plant response rating (bedstraw; [16]): 0; Bedstraw plant response rating (bedstraw; [12]): 4; Bedstraw plant response rating (bedstraw; [11]): 9; Bedstraw plant response rating (bedstraw; [17]): 5; Plant response rating, Wild oats (wild oat; [5]): 0; Wild oats plant response rating (wild oat; [15]): 0; Wild oats plant response rating (wild oat; [16]): 0; Wild oats plant response rating (wild oat; [12]): 3; Wild oats plant response rating (wild oat; [17]): 7 |
